Calls of active or inactive are those of the source. No cut-off for these calls is given here. Non-standard residues stand in square brackets, D forms with d. Residues, ends and D or L forms follow the SMILES beside them. Phe(2,6-Me2,4-CONH2) = Cc1cc(C(N)=O)cc(C)c1C[C@H](N)C(=O)O; Dmt = Cc1cc(O)cc(C)c1C[C@H](N)C(=O)O; Tic = O=C(O)[C@@H]1Cc2ccccc2CN1
Columns and labels:
[1] = molecular target: Delta-type opioid receptor (Mus musculus) (UniProt P32300); assay: Antagonist activity at delta opioid receptor in mouse vas deferens assessed as inhibition of DPDPE-stimulated muscle contraction; type: functional, tissue-based
[2] = molecular target: Delta-type opioid receptor (Rattus norvegicus, UniProt P33533); assay: Displacement of [3H]DSLET from delta opioid receptor in rat brain membrane; type: cell membranes
Mu-type opioid receptor [3] = molecular target: Mu-type opioid receptor (Rattus norvegicus, UniProt P33535); assay: Displacement of [3H]DAMGO from mu opioid receptor in rat brain membrane; type: cell membranes
[4] = molecular target: Kappa-type opioid receptor (Cavia porcellus, UniProt P41144); assay: Displacement of [3H]U69-593 from kappa opioid receptor in guinea pig brain membrane; type: cell membranes
Mu-type opioid receptor [5] = molecular target: Mu-type opioid receptor (Cavia porcellus, UniProt P97266); assay: Agonist activity at mu opioid receptor in guinea pig ileum assessed as effect on muscle contraction; type: functional, tissue-based
[6] = molecular target: Mu-type opioid receptor (Cavia porcellus) (UniProt P97266); assay: Antagonist activity at mu opioid receptor in guinea pig ileum assessed as inhibition of […]; type: functional, tissue-based
Chain of Mu-type opioid receptor (Cavia porcellus) (P97266 whole entry): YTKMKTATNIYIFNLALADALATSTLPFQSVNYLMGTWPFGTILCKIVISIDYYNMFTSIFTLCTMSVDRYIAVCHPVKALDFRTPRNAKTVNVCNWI

Chain of Delta-type opioid receptor (Mus musculus) (P32300 whole entry): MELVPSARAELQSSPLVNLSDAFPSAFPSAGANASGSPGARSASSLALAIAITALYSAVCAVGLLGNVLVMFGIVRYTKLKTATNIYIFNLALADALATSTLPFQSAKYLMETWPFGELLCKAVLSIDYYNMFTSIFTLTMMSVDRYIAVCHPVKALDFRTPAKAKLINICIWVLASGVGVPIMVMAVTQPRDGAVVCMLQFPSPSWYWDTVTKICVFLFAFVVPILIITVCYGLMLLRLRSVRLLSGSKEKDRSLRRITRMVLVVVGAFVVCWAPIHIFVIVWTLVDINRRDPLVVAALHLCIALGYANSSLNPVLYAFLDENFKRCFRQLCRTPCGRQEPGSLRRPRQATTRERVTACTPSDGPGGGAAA
Chain of Kappa-type opioid receptor (P41144 whole entry): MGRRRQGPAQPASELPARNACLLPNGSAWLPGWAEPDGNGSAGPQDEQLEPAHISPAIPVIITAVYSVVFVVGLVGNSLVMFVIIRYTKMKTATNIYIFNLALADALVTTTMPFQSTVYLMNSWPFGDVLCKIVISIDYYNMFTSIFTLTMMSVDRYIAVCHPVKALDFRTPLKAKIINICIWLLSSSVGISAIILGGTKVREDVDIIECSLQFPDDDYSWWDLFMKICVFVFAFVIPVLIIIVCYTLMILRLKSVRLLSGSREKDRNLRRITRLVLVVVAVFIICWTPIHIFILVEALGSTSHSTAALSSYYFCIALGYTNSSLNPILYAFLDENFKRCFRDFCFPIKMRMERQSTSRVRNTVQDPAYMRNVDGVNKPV
Chain of Mu-type opioid receptor (Cavia porcellus, UniProt P97266) (P97266 whole entry): as the sequence (P97266 whole entry) above
Chain of Delta-type opioid receptor (P33533 whole entry): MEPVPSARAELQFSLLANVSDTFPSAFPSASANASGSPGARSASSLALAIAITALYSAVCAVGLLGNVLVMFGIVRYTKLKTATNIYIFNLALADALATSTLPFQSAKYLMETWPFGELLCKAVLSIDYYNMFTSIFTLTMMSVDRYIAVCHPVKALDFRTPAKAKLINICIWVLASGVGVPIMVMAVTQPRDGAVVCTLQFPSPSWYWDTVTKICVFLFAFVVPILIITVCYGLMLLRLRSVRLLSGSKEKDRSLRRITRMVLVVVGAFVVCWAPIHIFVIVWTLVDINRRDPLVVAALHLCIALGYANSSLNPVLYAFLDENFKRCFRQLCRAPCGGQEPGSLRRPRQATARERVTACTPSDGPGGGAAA
Chain of Mu-type opioid receptor (Rattus norvegicus, UniProt P33535) (P33535 whole entry): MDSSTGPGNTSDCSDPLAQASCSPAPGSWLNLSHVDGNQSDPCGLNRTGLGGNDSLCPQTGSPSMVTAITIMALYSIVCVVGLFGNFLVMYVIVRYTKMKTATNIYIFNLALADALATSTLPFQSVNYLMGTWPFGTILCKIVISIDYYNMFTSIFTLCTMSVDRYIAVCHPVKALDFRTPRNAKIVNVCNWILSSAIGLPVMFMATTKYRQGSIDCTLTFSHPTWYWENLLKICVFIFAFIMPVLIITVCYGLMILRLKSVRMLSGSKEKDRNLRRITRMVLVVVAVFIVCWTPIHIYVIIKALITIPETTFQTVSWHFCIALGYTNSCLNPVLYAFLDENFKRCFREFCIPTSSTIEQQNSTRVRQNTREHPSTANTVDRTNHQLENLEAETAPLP

| Compound | Ke [1] [nM] | Ki [2] [nM] | Ki (Mu-type opioid receptor [3]) [nM] | Ki [4] [nM] | IC50 (Mu-type opioid receptor [5]) | Ke [6] | IC50 (Mu-type opioid receptor [5]; read-out: IC50) [nM] |
| --- | --- | --- | --- | --- | --- | --- | --- |
| Cc1cc(C(=O)NCCc2ccc(-c3ccccc3)cc2)cc(C)c1C[C@H](N)C(=O)N1Cc2ccccc2C[C@H]1C(=O)O | 1.76 |  |  |  |  |  |  |
| N[C@@H](Cc1ccc(C(=O)NCCc2ccc(-c3ccccc3)cc2)cc1)C(=O)N1Cc2ccccc2C[C@H]1C(=O)N[C@@H](Cc1ccccc1)C(=O)O | 18.7 |  |  |  |  |  |  |
| N[C@@H](Cc1ccc(C(=O)NCCc2ccc(-c3ccccc3)cc2)cc1)C(=O)N1Cc2ccccc2C[C@H]1C(=O)O | 17.8 |  |  |  |  |  |  |
| N[C@@H](Cc1ccc(O)cc1)C(=O)N1Cc2ccccc2C[C@H]1C(=O)O (H-Tyr-[Tic]-OH) | 263 | 242 | > 1000 | > 10000 | Not Active | inactive |  |
| N[C@@H](Cc1ccc(O)cc1)C(=O)N1Cc2ccccc2C[C@H]1C(=O)N[C@@H](Cc1ccccc1)C(=O)N[C@@H](Cc1ccccc1)C(=O)O (H-Y[Tic]FF-OH) |  |  |  | > 1000 |  |  | > 10000 |
| Cc1cc(O)cc(C)c1C[C@H](N)C(=O)N1Cc2ccccc2C[C@H]1C(=O)O (H-[Dmt]-[Tic]-OH) |  |  | 1360 | > 1000 | Not Active | inactive |  |
| Cc1cc(O)cc(C)c1C[C@H](N)C(=O)N1Cc2ccccc2C[C@H]1C(=O)N[C@@H](Cc1ccccc1)C(=O)N[C@@H](Cc1ccccc1)C(=O)O (H-[Dmt][Tic]FF-OH) | 0.196 |  |  | > 1000 |  |  | 769 |
| Cc1cc(C(N)=O)cc(C)c1C[C@H](N)C(=O)N1Cc2ccccc2C[C@H]1C(=O)N[C@@H](Cc1ccccc1)C(=O)N[C@@H](Cc1ccccc1)C(=O)O (H-[Phe(2,6-Me2,4-CONH2)][Tic]FF-OH) | 0.627 | 0.501 |  | > 1000 |  |  |  |
